Molecular target: T1, VvHmpA (Vibrio vulnificus, UniProt Q8DCU2)
T1 construct: gene hmp; reconstituted with heme or FAD
Experiment: FAD fluorometric assay after reconstitution
Format: binding
Details: 10 μM protein incubated with 80 μM FAD, 1 h, room temperature; stoichiometry, no affinity constant

T1 sequence (Q8DCU2 whole entry): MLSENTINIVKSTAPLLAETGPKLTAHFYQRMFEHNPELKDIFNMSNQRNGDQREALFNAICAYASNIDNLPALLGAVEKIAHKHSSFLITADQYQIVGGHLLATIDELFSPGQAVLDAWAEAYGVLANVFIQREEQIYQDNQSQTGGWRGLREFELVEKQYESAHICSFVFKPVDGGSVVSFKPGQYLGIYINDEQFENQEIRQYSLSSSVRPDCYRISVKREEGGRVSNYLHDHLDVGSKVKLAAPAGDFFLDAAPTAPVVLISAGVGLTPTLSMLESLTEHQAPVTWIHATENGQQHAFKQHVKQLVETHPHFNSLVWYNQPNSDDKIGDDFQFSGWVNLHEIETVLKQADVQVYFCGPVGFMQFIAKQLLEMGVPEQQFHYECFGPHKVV

With `Cc1cc2nc3c(=O)[nH]c(=O)nc-3n(C[C@H](O)[C@H](O)[C@H](O)COP(=O)(O)OP(=O)(O)OC[C@H]3O[C@@H](n4cnc5c(N)ncnc54)[C@H](O)[C@@H]3O)c2cc1C` [FAD] the “molecules of FAD per VvHmpA monomer” value was 0.92 ± 0.12 molecules per monomer.
